Experiments:
Experiment in all cases: KinaseProfiler off-target kinase profiling
Format in all cases: biochemical
Conditions in all cases: 10 μM, ATP near Km
[1] = molecular target: T1, AURKA (Homo sapiens, UniProt O14965)
T1 construct: purchased Millipore, Inc. (KinaseProfiler service)
Procedure: (§1) A representative compound of the invention (Example 20) was tested for off-target kinase activity at a concentration of 10 μM by Millipore, Inc. in their KinaseProfiler™ service against all the kinases available in their full kinase panel. The compound was run in duplicate at a concentration of ATP near the Km for each individual kinase according to Millipore's specifications. The results are shown in Table B. Data are reported as percent of control (POC) and are the average of the two replicates.

[2] = molecular target: T2, MAPKAP-K5 (Homo sapiens, UniProt Q8IW41)
T2 construct: purchased Millipore, Inc. (KinaseProfiler service)
Procedure: as §1

[3] = molecular target: T3, MST1 (Homo sapiens, UniProt Q13043)
T3 construct: purchased Millipore, Inc. (KinaseProfiler service)
T3 sequence (Q13043 whole entry): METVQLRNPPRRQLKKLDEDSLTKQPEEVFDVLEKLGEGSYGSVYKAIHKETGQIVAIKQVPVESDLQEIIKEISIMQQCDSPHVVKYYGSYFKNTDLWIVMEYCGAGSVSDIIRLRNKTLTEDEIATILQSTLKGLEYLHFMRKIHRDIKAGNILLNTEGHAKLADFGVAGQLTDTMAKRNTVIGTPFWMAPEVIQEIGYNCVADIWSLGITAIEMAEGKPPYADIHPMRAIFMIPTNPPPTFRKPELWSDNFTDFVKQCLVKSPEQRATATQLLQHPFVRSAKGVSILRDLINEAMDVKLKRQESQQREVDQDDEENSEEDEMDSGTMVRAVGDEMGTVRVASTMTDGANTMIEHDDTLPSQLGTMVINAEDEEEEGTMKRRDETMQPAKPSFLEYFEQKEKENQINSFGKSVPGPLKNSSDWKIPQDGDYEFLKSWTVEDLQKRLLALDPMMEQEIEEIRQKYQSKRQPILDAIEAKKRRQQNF
Procedure: as §1

[4] = molecular target: T4, Ron (Homo sapiens, UniProt Q04912)
T4 construct: purchased Millipore (KinaseProfiler service)
Procedure: as §1

[5] = molecular target: T5, Yes (Homo sapiens, UniProt P07947)
T5 construct: purchased Millipore, Inc. (KinaseProfiler service)
Procedure: as §1

[6] = molecular target: T6, Flt4 (Homo sapiens, UniProt P35916)
T6 construct: purchased Millipore, Inc. (KinaseProfiler service)
Procedure: as §1

[7] = molecular target: T7, p70S6K (Homo sapiens, UniProt P23443)
T7 construct: purchased Millipore, Inc. (KinaseProfiler service)
Procedure: as §1

[8] = molecular target: T8, MLK1 (Homo sapiens, UniProt P80192)
T8 construct: purchased Millipore, Inc. (KinaseProfiler service)
Procedure: as §1

[9] = molecular target: T9, Ros (Homo sapiens, UniProt P08922)
T9 construct: purchased Millipore (KinaseProfiler service)
Procedure: as §1

[10] = molecular target: T10, NEK3 (Homo sapiens, UniProt P51956)
T10 construct: purchased Millipore, Inc. (KinaseProfiler service)
Procedure: as §1

[11] = molecular target: T11, Axl (Homo sapiens, UniProt P30530)
T11 construct: purchased Millipore, Inc. (KinaseProfiler service)
Procedure: as §1

[12] = molecular target: T12, GRK7 (Homo sapiens, UniProt Q8WTQ7)
T12 construct: purchased Millipore, Inc. (KinaseProfiler service)
Procedure: as §1

[13] = molecular target: T13, Flt3 (Homo sapiens, UniProt P36888)
T13 construct: purchased Millipore, Inc. (KinaseProfiler service)
Procedure: as §1

[14] = molecular target: T14, MSK1 (Homo sapiens, UniProt O75582)
T14 construct: purchased Millipore, Inc. (KinaseProfiler service)
T14 sequence (O75582 whole entry): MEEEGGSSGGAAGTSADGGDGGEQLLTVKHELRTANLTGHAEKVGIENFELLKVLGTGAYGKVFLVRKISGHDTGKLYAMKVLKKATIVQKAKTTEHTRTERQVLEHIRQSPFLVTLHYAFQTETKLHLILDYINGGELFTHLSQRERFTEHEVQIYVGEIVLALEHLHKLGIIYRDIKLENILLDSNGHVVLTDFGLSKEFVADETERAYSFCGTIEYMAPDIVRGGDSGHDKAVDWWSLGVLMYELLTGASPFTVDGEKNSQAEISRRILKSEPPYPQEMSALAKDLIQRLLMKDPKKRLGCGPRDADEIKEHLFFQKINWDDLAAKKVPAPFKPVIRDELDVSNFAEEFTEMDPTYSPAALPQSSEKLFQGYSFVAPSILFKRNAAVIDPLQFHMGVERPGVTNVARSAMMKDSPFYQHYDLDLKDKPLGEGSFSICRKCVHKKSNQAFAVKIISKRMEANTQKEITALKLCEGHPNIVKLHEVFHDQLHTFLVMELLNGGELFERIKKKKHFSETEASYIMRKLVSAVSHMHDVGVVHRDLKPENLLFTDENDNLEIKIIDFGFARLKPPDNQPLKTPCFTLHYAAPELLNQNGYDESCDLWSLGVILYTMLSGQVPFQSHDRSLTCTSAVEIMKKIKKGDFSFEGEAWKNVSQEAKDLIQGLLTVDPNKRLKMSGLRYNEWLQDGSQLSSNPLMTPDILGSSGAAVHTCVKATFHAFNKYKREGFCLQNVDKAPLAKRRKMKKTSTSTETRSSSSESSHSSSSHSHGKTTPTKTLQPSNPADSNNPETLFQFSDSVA
Procedure: as §1

[15] = molecular target: T15, IRR (Homo sapiens, UniProt P14616)
T15 construct: purchased Millipore, Inc. (KinaseProfiler service)
Procedure: as §1

[16] = molecular target: T16, CLK3 (Homo sapiens, UniProt P49761)
T16 construct: purchased Millipore, Inc. (KinaseProfiler service)
Procedure: as §1

[17] = molecular target: T17, PASK (Homo sapiens, UniProt Q96RG2)
T17 construct: purchased Millipore, Inc. (KinaseProfiler service)
Procedure: as §1

[18] = molecular target: T18, MKK4_m (Mus musculus, UniProt P47809)
T18 construct: purchased Millipore, Inc. (KinaseProfiler service)
Procedure: as §1

[19] = molecular target: T19, AMPK(A1/B1/G1) (Homo sapiens, UniProt Q13131)
T19 construct: purchased Millipore, Inc. (KinaseProfiler service)
Procedure: as §1

[20] = molecular target: T20, Ret (Homo sapiens, UniProt P07949)
T20 construct: purchased Millipore (KinaseProfiler service)
Procedure: as §1

[21] = molecular target: T21, MSK2 (Homo sapiens, UniProt O75676)
T21 construct: purchased Millipore, Inc. (KinaseProfiler service)
Procedure: as §1

[22] = molecular target: T22, BrSK1 (Homo sapiens, UniProt Q8TDC3)
T22 construct: purchased Millipore, Inc. (KinaseProfiler service)
Procedure: as §1

[23] = molecular target: T23, KIT (Homo sapiens, UniProt P10721)
T23 construct: purchased Millipore, Inc. (KinaseProfiler service)
Procedure: as §1

[24] = molecular target: T24, PRK2 (Homo sapiens, UniProt Q16513)
T24 construct: purchased Millipore (KinaseProfiler service)
Procedure: as §1

[25] = molecular target: T25, ARK5 (Homo sapiens, UniProt O60285)
T25 construct: purchased Millipore, Inc. (KinaseProfiler service)
Procedure: as §1

[26] = molecular target: T26, LIMK1 (Homo sapiens, UniProt P53667)
T26 construct: purchased Millipore, Inc. (KinaseProfiler service)
T26 sequence (P53667 whole entry): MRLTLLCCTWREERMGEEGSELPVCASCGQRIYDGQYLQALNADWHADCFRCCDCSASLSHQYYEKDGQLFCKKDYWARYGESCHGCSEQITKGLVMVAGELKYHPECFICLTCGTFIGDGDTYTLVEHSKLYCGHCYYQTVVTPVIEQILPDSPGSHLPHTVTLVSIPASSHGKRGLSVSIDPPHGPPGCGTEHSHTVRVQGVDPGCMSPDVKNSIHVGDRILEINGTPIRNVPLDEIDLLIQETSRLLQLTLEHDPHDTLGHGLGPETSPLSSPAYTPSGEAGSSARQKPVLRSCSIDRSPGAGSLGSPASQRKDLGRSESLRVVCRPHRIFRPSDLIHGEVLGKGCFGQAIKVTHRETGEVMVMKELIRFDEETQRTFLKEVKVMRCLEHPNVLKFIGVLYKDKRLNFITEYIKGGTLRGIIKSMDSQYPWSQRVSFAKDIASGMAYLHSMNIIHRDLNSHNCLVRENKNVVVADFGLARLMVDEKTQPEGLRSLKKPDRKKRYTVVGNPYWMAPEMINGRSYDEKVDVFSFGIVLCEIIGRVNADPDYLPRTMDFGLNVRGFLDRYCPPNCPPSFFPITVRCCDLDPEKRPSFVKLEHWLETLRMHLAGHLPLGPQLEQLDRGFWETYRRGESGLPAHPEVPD
Procedure: as §1

[27] = molecular target: T27, ITK (Homo sapiens, UniProt Q08881)
T27 construct: purchased Millipore, Inc. (KinaseProfiler service)
Procedure: as §1

[28] = molecular target: T28, PAK5 (Homo sapiens, UniProt Q9P286)
T28 construct: purchased Millipore, Inc. (KinaseProfiler service)
Procedure: as §1

[29] = molecular target: T29, MEK1 (Homo sapiens, UniProt Q02750)
T29 construct: purchased Millipore, Inc. (KinaseProfiler service)
T29 sequence (Q02750 whole entry): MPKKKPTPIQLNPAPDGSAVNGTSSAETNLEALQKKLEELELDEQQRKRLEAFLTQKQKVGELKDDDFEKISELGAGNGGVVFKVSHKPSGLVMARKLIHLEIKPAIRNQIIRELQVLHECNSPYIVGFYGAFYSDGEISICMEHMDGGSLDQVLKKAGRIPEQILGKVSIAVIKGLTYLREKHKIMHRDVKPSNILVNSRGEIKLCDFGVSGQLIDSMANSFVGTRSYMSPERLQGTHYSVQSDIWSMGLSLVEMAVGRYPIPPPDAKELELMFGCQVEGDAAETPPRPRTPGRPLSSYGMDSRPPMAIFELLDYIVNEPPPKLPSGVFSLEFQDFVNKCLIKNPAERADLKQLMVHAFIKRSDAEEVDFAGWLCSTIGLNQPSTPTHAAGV
Procedure: as §1

[30] = molecular target: T30, TLK2 (Homo sapiens, UniProt Q86UE8)
T30 construct: purchased Millipore, Inc. (KinaseProfiler service)
T30 sequence (Q86UE8 whole entry): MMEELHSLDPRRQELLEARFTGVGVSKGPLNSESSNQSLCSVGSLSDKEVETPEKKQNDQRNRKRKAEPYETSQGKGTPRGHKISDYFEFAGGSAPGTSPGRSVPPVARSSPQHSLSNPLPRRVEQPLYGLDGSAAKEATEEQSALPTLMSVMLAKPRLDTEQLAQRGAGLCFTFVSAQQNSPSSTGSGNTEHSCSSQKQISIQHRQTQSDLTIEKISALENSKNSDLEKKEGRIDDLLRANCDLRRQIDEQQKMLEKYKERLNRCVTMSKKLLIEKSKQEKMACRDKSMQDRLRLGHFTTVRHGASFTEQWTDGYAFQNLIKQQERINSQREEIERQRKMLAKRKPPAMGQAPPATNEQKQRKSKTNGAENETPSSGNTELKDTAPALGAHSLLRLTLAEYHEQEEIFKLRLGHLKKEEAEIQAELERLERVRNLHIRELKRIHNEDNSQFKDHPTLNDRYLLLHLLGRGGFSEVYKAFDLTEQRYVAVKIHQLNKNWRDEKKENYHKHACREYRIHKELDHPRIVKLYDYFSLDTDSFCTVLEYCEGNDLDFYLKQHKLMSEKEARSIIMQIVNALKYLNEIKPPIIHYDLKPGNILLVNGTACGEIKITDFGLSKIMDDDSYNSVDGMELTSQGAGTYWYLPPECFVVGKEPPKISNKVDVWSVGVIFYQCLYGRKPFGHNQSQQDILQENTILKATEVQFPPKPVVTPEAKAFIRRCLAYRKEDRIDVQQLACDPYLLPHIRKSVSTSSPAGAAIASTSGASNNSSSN
Procedure: as §1

[31] = molecular target: T31, CHK1 (Homo sapiens, UniProt O14757)
T31 construct: purchased Millipore, Inc. (KinaseProfiler service)
Procedure: as §1

[32] = molecular target: T32, TEC Activated (Homo sapiens, UniProt P42680)
T32 construct: purchased Millipore, Inc. (KinaseProfiler service)
T32 sequence (P42680 whole entry): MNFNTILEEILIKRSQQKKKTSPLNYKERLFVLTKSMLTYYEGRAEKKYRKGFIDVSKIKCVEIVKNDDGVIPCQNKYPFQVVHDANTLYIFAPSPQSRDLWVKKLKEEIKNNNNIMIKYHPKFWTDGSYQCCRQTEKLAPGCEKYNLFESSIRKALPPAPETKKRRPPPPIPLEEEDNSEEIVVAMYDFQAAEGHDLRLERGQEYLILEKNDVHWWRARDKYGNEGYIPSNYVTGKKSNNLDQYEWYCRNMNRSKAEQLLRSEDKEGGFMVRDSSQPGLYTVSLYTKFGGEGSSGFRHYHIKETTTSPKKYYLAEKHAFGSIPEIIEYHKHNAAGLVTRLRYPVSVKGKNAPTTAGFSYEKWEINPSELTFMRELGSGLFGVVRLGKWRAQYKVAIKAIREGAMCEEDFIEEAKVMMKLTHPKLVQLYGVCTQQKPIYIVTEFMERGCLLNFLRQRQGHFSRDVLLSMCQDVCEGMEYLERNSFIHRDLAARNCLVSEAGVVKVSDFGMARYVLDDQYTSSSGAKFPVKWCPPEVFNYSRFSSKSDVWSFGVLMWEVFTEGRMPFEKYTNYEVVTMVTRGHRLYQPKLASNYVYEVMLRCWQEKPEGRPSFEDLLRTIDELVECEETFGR
Procedure: as §1

[33] = molecular target: T33, CK2 (Homo sapiens, UniProt P68400)
T33 construct: purchased Millipore, Inc. (KinaseProfiler service)
Procedure: as §1

[34] = molecular target: T34, DRAK1 (Homo sapiens, UniProt Q9UEE5)
T34 construct: purchased Millipore, Inc. (KinaseProfiler service)
Procedure: as §1

[35] = molecular target: T35, CDK6/cyclinD3 (Homo sapiens, UniProt Q00534)
T35 construct: purchased Millipore, Inc. (KinaseProfiler service)
Procedure: as §1

[36] = molecular target: T36, EphB3 (Homo sapiens, UniProt P54753)
T36 construct: purchased Millipore, Inc. (KinaseProfiler service)
T36 sequence (P54753 34-998): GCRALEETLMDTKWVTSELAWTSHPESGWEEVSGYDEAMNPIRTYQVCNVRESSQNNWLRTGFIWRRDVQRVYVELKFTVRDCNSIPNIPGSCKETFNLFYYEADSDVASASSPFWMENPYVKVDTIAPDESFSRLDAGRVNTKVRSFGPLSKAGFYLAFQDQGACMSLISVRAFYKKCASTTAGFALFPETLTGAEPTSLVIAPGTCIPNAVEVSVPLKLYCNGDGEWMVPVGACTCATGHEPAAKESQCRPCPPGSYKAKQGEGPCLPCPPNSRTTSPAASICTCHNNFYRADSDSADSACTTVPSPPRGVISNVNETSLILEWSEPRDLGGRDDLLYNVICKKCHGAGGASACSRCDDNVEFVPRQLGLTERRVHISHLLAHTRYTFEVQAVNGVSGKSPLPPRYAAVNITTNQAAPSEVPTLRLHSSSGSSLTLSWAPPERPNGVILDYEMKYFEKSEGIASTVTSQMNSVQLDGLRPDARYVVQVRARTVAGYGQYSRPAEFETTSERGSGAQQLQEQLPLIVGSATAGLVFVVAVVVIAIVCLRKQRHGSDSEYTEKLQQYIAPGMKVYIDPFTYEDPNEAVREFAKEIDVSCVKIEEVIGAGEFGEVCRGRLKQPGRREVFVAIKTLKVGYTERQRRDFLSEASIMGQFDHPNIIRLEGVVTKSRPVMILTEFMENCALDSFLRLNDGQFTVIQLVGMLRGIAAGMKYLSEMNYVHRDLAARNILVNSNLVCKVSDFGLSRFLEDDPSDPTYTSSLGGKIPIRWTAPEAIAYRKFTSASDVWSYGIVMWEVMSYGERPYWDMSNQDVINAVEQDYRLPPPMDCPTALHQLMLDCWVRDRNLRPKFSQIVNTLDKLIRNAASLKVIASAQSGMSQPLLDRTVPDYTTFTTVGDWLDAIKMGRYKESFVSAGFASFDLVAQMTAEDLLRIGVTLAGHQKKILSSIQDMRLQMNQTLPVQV
Procedure: as §1

[37] = molecular target: T37, Rsk3 (Homo sapiens, UniProt Q15349)
T37 construct: purchased Millipore (KinaseProfiler service)
Procedure: as §1

[38] = molecular target: T38, CK1gamma3 (Homo sapiens, UniProt Q9Y6M4)
T38 construct: purchased Millipore, Inc. (KinaseProfiler service)
Procedure: as §1

[39] = molecular target: T39, IKKalpha (Homo sapiens, UniProt O15111)
T39 construct: purchased Millipore, Inc. (KinaseProfiler service)
Procedure: as §1

[40] = molecular target: T40, p38beta (Homo sapiens, UniProt Q15759)
T40 construct: purchased Millipore, Inc. (KinaseProfiler service)
Procedure: as §1

[41] = molecular target: T41, PKCalpha (Homo sapiens, UniProt P17252)
T41 construct: purchased Millipore, Inc. (KinaseProfiler service)
Procedure: as §1

## COCCN1C[C@@H](NC(=O)Nc2c(-c3ccccc3)nc3c(C)nccn23)[C@H](c2ccc(F)c(F)c2)C1 [Example 20, 1-((3S,4R)-4-(3,4-difluorophenyl)-1-(2-methoxyethyl)pyrrolidin-3-yl)-3-(8-methyl-2-phenylimidazo[1,2-a]pyrazin-3-yl)urea]
[1]
  Avg. POC: 118 POC
[2]
  Avg. POC: 88.5 POC
[3]
  Avg. POC: 89.5 POC
[4]
  Avg. POC: 100 POC
[5]
  Avg. POC: 109 POC
[6]
  Avg. POC: 110.5 POC
[7]
  Avg. POC: 112 POC
[8]
  Avg. POC: 100 POC
[9]
  Avg. POC: 95.5 POC
[10]
  Avg. POC: 103 POC
[11]
  Avg. POC: 97 POC
[12]
  Avg. POC: 96.5 POC
[13]
  Avg. POC: 110 POC
[14]
  Avg. POC: 121 POC
[15]
  Avg. POC: 96 POC
[16]
  Avg. POC: 107 POC
[17]
  Avg. POC: 111 POC
[18]
  Avg. POC: 113 POC
[19]
  Avg. POC: 108.5 POC
[20]
  Avg. POC: 97.5 POC
[21]
  Avg. POC: 126 POC
[22]
  Avg. POC: 112.5 POC
[23]
  Avg. POC: 117.5 POC
[24]
  Avg. POC: 104 POC
[25]
  Avg. POC: 104 POC
[26]
  Avg. POC: 103 POC
[27]
  Avg. POC: 122.5 POC
[28]
  Avg. POC: 105.5 POC
[29]
  Avg. POC: 111 POC
[30]
  Avg. POC: 105 POC
[31]
  Avg. POC: 103.5 POC
[32]
  Avg. POC: 107 POC
[33]
  Avg. POC: 109 POC
[34]
  Avg. POC: 107 POC
[35]
  Avg. POC: 103.5 POC
[36]
  Avg. POC: 107 POC
[37]
  Avg. POC: 107.5 POC
[38]
  Avg. POC: 112 POC
[39]
  Avg. POC: 121 POC
[40]
  Avg. POC: 98.5 POC
[41]
  Avg. POC: 103.5 POC

Source: patent US9790178B2, “Pyrrolidinyl urea, thiourea, guanidine and cyanoguanidine compounds as TrkA kinase inhibitors” (Array BioPharma Inc., priority 2012, dated 2017)
